Measured values from patent US9012617B2, “Detection reagents for tyrosine kinase activity and methods of use thereof” (The Trustees of The University of Pennsylvania, priority 2011, dated 2015).

How the values were obtained:
EphA4 = molecular target: T1, EphA4 (Homo sapiens, UniProt P54764); assay: EphA4 kinetics imaging in HEK 293T cells transfected with GPhosEphA and EphA4; assay type: cell-based; details: Disassociation rate of EphA4 receptor after Genistien treatment (10 μm)
T1 construct: expressed in transfected cells; host or cells: HEK 293T
Method: (§1) Cells were imaged in ACSF on a spinning disk confocal (PerkinElmer) encased in a humidified temperature controlled incubator attached to a CCD-EM camera (Hamamatsu). Images were taken as a […] z-projection ([…] step size) every 20 seconds. After a 2 minute baseline, cells were treated and imaged with either DyLight 649 (Jackson Immunoresearch) labeled EphrinB2-FC or DyLight 649 labeled EphrinA1-FC (both at 500 ng/ml) for 15 minutes. Before continuing the experiment, bath was exchanged with fresh ASCF. Genistien (10 μm; Calbiochem) was added to previously imaged cells after a 2 minute baseline and imaged for an additional 15 minutes. Images were collected via Volocity software and analyzed using NIH ImageJ as detailed below.
(§2) Image analysis was conducted off-line using NIH ImageJ using both custom and standard macros. […] Ratio change was calculated as DF/F=(F−F0)/F0 (Yuste and Konnerth, 2005). Significance between conditions was determined by two-way ANOVA with Bonferroni post-hoc tests. Receptor “on” kinetics were calculated as one-phase association, and “off” kinetics were calculated as one-phase decay. All statistical measures were conducted using GraphPad Prism version 5.00 (GraphPad Software, San Diego, Calif.) on a per coverslip basis with several cells analyzed per coverslip from a minimum of three independent experiments. […]

EphB2 = molecular target: T2, EphB2 (Homo sapiens, UniProt P29323); assay: EphB2 kinetics imaging in HEK 293T cells transfected with GPhosEphB and EphB2; assay type: cell-based; details: Disassociation rate of EphB2 receptor after Genistien treatment (10 μm)
T2 construct: expressed in transfected cells; host or cells: HEK 293T
T2 sequence (P29323 19-1055): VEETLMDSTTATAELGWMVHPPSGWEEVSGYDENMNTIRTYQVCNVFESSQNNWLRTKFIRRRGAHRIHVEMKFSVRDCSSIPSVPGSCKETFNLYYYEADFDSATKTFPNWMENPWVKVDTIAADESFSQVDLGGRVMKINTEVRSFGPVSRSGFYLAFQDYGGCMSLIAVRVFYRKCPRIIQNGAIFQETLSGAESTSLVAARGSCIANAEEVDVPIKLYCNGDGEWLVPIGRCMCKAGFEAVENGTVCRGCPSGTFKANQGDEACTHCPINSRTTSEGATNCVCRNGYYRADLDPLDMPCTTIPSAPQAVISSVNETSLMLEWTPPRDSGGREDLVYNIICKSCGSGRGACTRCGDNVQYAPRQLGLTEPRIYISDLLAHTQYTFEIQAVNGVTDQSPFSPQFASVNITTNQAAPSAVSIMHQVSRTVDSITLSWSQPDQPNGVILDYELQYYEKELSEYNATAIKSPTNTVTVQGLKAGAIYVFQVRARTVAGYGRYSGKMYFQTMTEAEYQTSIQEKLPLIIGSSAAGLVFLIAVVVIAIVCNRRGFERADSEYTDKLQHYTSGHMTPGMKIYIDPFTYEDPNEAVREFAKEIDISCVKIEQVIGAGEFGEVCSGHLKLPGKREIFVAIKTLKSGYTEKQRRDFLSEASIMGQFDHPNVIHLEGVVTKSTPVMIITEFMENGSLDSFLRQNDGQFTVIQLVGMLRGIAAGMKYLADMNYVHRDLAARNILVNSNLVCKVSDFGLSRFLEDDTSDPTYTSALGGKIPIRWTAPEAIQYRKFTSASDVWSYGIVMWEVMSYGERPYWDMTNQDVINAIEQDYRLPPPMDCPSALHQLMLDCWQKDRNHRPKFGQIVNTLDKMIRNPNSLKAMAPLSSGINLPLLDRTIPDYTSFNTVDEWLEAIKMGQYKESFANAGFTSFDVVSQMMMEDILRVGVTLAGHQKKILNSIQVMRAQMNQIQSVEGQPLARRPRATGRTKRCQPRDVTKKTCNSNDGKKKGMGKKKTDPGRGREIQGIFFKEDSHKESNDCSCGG
Method: as §1, §2

T1 sequence (P54764 20-986, species assumed): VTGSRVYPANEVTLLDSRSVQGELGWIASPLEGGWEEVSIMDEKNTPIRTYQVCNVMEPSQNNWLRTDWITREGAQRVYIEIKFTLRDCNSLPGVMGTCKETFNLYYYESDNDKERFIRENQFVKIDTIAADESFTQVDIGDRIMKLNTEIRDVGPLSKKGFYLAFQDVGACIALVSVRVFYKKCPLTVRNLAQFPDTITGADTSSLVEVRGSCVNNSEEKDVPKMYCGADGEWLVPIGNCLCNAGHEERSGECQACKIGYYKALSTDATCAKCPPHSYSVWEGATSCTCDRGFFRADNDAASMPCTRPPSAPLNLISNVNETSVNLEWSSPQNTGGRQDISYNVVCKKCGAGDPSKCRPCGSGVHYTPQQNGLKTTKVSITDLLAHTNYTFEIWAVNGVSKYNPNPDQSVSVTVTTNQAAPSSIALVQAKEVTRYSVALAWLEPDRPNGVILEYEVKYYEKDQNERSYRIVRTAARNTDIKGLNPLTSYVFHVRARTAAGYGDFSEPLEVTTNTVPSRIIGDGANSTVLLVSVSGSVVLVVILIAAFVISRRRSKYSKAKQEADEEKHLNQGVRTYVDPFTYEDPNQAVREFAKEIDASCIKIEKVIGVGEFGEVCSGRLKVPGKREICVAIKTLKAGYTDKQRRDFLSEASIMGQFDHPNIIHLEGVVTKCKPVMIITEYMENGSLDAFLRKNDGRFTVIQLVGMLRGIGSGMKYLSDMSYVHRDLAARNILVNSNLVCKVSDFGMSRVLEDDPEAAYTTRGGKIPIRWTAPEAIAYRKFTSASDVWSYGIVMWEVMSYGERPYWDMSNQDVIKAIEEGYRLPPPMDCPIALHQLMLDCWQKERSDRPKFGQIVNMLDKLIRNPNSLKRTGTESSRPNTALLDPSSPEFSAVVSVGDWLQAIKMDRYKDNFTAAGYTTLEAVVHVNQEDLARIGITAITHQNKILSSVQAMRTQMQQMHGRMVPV

SMILES: O=c1c(-c2ccc(O)cc2)coc2cc(O)cc(O)c12 [Genistein]
- One phase decay Tau (EphA4): 0.8484
- One phase decay Tau (EphB2): 1.588
